The subject of one assay is MCF7/ADR. In words: Soft agar colony formation disk diffusion assay. The class given is cell-based, human. The following applies: 100 μg/DISK. From the text: (§1) A more elaborate version of this fundamental assay, the soft agar colony formation disk diffusion assay was used. This assay defines the relative activity of one particular drug versus a tumoral cell line type. The effect of the test drug against tumoral cells could be measured by its inhibitory capacity against colony formation after the delivery of the compound, in different concentrations on an filter disk(4). A modified technique of this assay was used in order to investigate the antiproliferative activity of candidate compounds. Tumoral cells from solid tumors and ascitic lines were plated separately in a two layer agar matrix. Cell lines to be tested were suspended in an upper layer of 0.4% Noble agar (Difco#00142-01) in RPMI-1066 (Gibco#3201875) at a yield varying between 10^4 to 2×10^5 cells per 60 mm Petri dish. Plating efficiency was determined for each line in order to achieve an optimal number of colonies per dish. Plates were examined before drug administration to confirm a uniform dispersion of single cells. The bottom layer consisted of 0.8% Noble agar, 0.8% Tryptic Soy Broth (difco#0037001)in CMRL-1066/Fischer's. The bottom layers were used within 2 and 9 days of preparation. Plated dishes (bottom layer of agar, upper layer of cells and administered drug were incubated in humidified atmosphere at 37° C., 5% CO2 for 10-20 days depending upon the time necessary to observe adequate colonies (defined as a cell aggregate of more than 50 cells) both control and drug inhibited. Drugs were administered on a paper filter disk (Whatman No. 1) of 6.5 mm diameter placed on the upper layer at 1/3 distance from the edge of the dish. The anti-clonogenic activity of the compounds was measured as the zone of inhibition from the disk edge to the most proximal colonies. This zone of inhibition was checked on an inverted microscope (40×) and was measured with a micrometer mounted in the eyepiece. The ocular micrometer was calibrated with a stage micrometer set for a particular combination of ocular and objective lenses. […] We made a modification of the initial technique by not plating a solid tumor and a leukemia simultaneously in the same Petri dish. Anti-clonogenic tests performed on leukemia cell line have helped in the discovery of the majority of current clinically used cytostatic drugs. Our tests on solid tumor lines (animal or human) may help define active compounds with solid tumor specificity. […] HUMAN TUMORS. […] LS180 (13) and BE1(14) were obtained from the Oncology Dept. of the Montreal General Hospital. […] Cell lines were routinely passaged twice a week by trypsinization and maintained in 25, or 75-sq. cm Falcon Plastic flasks at 37° C., 5% CO2 in humidified atmosphere. Both compounds were dissolved in DMSO (1 mg/100 ul) and brought to final volume (250 ul) with Millipore deionized sterile water. Further dilutions were made with […] volume of 25 ul of freshly prepared solution was placed on the filter disk and allowed to dry.
Background: Agar diffusion results depend on both activity and mobility in agar.

The test system of a further assay is MCF7. The assay is described as follows: Soft agar colony formation disk diffusion assay. The note with it: 100 μg/DISK. The class given is cell-based, human.
Description: as §1

A further assay deals with MATB.WT. The assay is described as follows: Soft agar colony formation disk diffusion assay. The note with it: 100 μg/DISK. It is filed as cell-based, rat. From the text: (§2) A more elaborate version of this fundamental assay, the soft agar colony formation disk diffusion assay was used. This assay defines the relative activity of one particular drug versus a tumoral cell line type. The effect of the test drug against tumoral cells could be measured by its inhibitory capacity against colony formation after the delivery of the compound, in different concentrations on an filter disk(4). A modified technique of this assay was used in order to investigate the antiproliferative activity of candidate compounds. Tumoral cells from solid tumors and ascitic lines were plated separately in a two layer agar matrix. Cell lines to be tested were suspended in an upper layer of 0.4% Noble agar (Difco#00142-01) in RPMI-1066 (Gibco#3201875) at a yield varying between 10^4 to 2×10^5 cells per 60 mm Petri dish. Plating efficiency was determined for each line in order to achieve an optimal number of colonies per dish. Plates were examined before drug administration to confirm a uniform dispersion of single cells. The bottom layer consisted of 0.8% Noble agar, 0.8% Tryptic Soy Broth (difco#0037001)in CMRL-1066/Fischer's. The bottom layers were used within 2 and 9 days of preparation. Plated dishes (bottom layer of agar, upper layer of cells and administered drug were incubated in humidified atmosphere at 37° C., 5% CO2 for 10-20 days depending upon the time necessary to observe adequate colonies (defined as a cell aggregate of more than 50 cells) both control and drug inhibited. Drugs were administered on a paper filter disk (Whatman No. 1) of 6.5 mm diameter placed on the upper layer at 1/3 distance from the edge of the dish. The anti-clonogenic activity of the compounds was measured as the zone of inhibition from the disk edge to the most proximal colonies. This zone of inhibition was checked on an inverted microscope (40×) and was measured with a micrometer mounted in the eyepiece. The ocular micrometer was calibrated with a stage micrometer set for a particular combination of ocular and objective lenses. […] We made a modification of the initial technique by not plating a solid tumor and a leukemia simultaneously in the same Petri dish. Anti-clonogenic tests performed on leukemia cell line have helped in the discovery of the majority of current clinically used cytostatic drugs. Our tests on solid tumor lines (animal or human) may help define active compounds with solid tumor specificity. […] Murine tumors were maintained IN VIVO in order to diminish the selection of subpopulations of cells normally present in the heterogenous IN VIVO tumor. The actual drug sensitivity assay was done IN VITRO. For these experiments cells from freshly excised tumors or from ascitic fluids were maintained in RPMI-1066. Both compounds were dissolved in DMSO (1 mg/100 ul) and brought to final volume (250 ul) with Millipore deionized sterile water. Further dilutions were made with […] volume of 25 ul of freshly prepared solution was placed on the filter disk and allowed to dry.

In the next assay the test system is MATB/ADR. In words: Soft agar colony formation disk diffusion assay. It is filed as cell-based, rat.
Description: as §2

The subject of the next assay is SKOV3. The assay is described as follows: Microculture tetrazolium assay. The class given is cell-based. The note with it: read-out: IC50.
The next assay relates to SKVLB. In words: Microculture tetrazolium assay. The note with it: for VLB/OV3: IC50 ratio SKVLB/SKOV3; for IC50: SKVLB, read-out: IC50. It is filed as cell-based.
For the next assay, the system named is T47D. In words: Microculture tetrazolium assay. The class given is cell-based. The following applies: read-out: IC50.
The subject of the next assay is LOX. In words: Microculture tetrazolium assay. It is filed as cell-based. The following applies: read-out: IC50.
A further assay has as its system HT29. In words: Microculture tetrazolium assay. It is filed as cell-based. The note with it: read-out: IC50.

The values that follow come from patent US5593970A, “Heterocyclic anthracycline analogs” (priority 1994, dated 1997).

Counter-ions that a name gives are not always drawn. Like-named read-outs stand apart in the source and are kept apart here. Some results are limits rather than exact numbers.

`CCOC(=O)C1Cc2c(OCC)c3c(c(O)c2C(O[C@H]2C[C@H](NC(=O)C(F)(F)F)[C@H](O)[C@H](C)O2)O1)C(=O)c1ccccc1C3=O` (stereo partly shown) [BCH-705]: the zone of inhibition with MCF7/ADR turned out to be 35.5 ± 7.3 Zone Units; with MCF7 it was 79.3 ± 8.6 Zone Units; with MATB.WT, 259.2 ± 21.5 Zone Units; with MATB/ADR (100 μg/DISK) it was 155.5 ± 4.3 Zone Units. Also, in the assay on MATB/ADR, the “cross resistance with adriamycin, MATB/ADR vs MATB.WT” value is “no cross resistance with adriamycin”. Further, the IC50 was found to be 12.9 µM in the assay with SKOV3 (Homo sapiens, SK-OV-3, SKOV3) and 14.1 µM in the assay on SKVLB. Besides, the VLB/OV3 in the assay with SKVLB came to 1.09.
For `CCCCC[C@H]1Cc2c(O)c3c(c(O)c2[C@H](O[C@H]2C[C@H](N)[C@H](O)[C@H](C)O2)O1)C(=O)c1ccccc1C3=O` [BCH-2088, (1'S,1S,3S)-5,12-mihydroxy-3-pentyl-1-(2',3',6'-trideoxy-3'-amino-L-lyxohexopyranose)-1,2,3,4-tetrahydro-(2-oxygen)-naphtacene-6,11-dione-hydrochloride], the IC50 with SKOV3 (Homo sapiens, SK-OV-3, SKOV3) was found to be 0.573 µM; with SKVLB, 1.09 µM; in the assay with T47D (Homo sapiens), 0.174 µM; with LOX it was 0.201 µM; in the assay with HT29 (Homo sapiens, HT-29, HT29), 0.024 µM. Besides, in the assay with SKVLB, the VLB/OV3 is on record as 1.90.
Turning to `CCCCCC1Cc2c(O)c3c(c(O)c2C(O[C@H]2C[C@H](N)[C@H](O)[C@H](C)O2)O1)C(=O)c1ccccc1C3=O` (stereo partly drawn) [BCH-2089, (1'S,1R,3R)-5,12-Dihydroxy-3-pentyl-1-(2',3',6'-trideoxy-3'-amino-L-lyxohexopyranose)-1,2,3,4-tetrahydro-(2-oxygen)-naphtacene-6,11-dione-hydrochloride], the IC50 in the assay with SKOV3 (Homo sapiens, SK-OV-3, SKOV3) came to 0.332 µM; with SKVLB it was 0.42 µM; in the assay on T47D (Homo sapiens) it was 0.201 µM; in the assay with LOX it was 0.104 µM; with HT29 (Homo sapiens, HT-29, HT29), 0.194 µM. In addition, in the assay on SKVLB, the VLB/OV3 worked out at 1.27.
With `CC(=O)[C@@H]1CC2=C(C(=O)c3cc4ccccc4c(O)c3C2=O)[C@@H](O[C@H]2C[C@H](NC(=O)C(F)(F)F)[C@H](OS(C)(=O)=O)[C@H](C)O2)O1` [BCH-2093, (1S,1R,3S)-Methyl-(6-hydroxy-1-(2',3',4',6'-tetradeoxy-3'-trifluoroacetamido-4'-O-methanesulfonyl-L-lyxohexopyranose)-5,12-dioxo-3,4,5,12-tetrahydroanthraceno[2,3-c]pyran-3-yl)ketone], the half-maximal inhibitory concentration (IC50) in the assay with SKOV3 (Homo sapiens, SK-OV-3, SKOV3) came out at 10.3 µM; with SKVLB, 39.3 µM; with T47D (Homo sapiens), 15.9 µM; in the assay with LOX, 4.36 µM; with HT29 (Homo sapiens, HT-29, HT29), 2.8 µM. Besides, in the assay on SKVLB, the VLB/OV3 came to 3.82.
Regarding `CC(=O)C1CC2=C(C(=O)c3cc4ccccc4c(O)c3C2=O)C(O[C@H]2C[C@H](NC(=O)C(F)(F)F)[C@H](OS(C)(=O)=O)[C@H](C)O2)O1` (stereo partly shown) [BCH-2094], the IC50 turned out to be 4.7 µM with SKOV3 (Homo sapiens, SK-OV-3, SKOV3); 12 µM with SKVLB; 6.51 µM with T47D (Homo sapiens); 1.4 µM in the assay on LOX; 1.06 µM in the assay with HT29 (Homo sapiens, HT-29, HT29). Further, the VLB/OV3 with SKVLB is recorded as 2.55.
For “(1'S,1R,3R) and (1'S,1S,3S)-5,12-dioxo-3-ethyl-6-hydroxy-1-(2',3',6'-trideoxy-3'-trifluoroacetamido-4'-O-p-nitrobenzoyl-L-lyxohexopyranose)-3,4,5,12-tetrahydroanthraceno[2,3-C]pyran [BCH-1199]”, the IC50 is 32.3 µM in the assay on SKOV3 (SKOV3); more than 100 µM in the assay on SKVLB; 46.2 µM with T47D; more than 100 µM with LOX; more than 100 µM in the assay on HT29 (HT29).
As to “(1'S,1R,3S) and (1'S,1S,3R)-Methyl-1-(2',3',6'-trideoxy-3-trifluoroacetamido-4'-O-p-nitrobenzoyl-L-lyxohexopyranose)-6,11'dioxo-5'-hydroxy-12-acetoxy-3,4,6,11-tetrahydroanthra-ceno-[2,3-C]-pyran-3-yl) ketone [BCH-1163]”, the concentration for half-maximal inhibition (IC50) with SKOV3 (SKOV3) turned out to be 11 µM; with SKVLB, 11.6 µM; in the assay on T47D, 5 µM; in the assay on LOX, 26.1 µM; in the assay with HT29 (HT29) it was 4.67 µM. The VLB/OV3 in the assay on SKVLB came out at 1.05.

What is called IC50 is the concentration needed to halve the response being measured.
